Data reported in patent publication US20080206761A1, “Ex Vivo Gene Expression in Whole Blood as a Model of Assessment of Individual Variation to Dietary Supplements” (priority 2005, published 2008).

Tested on: IL-2 mRNA
Experiment: PHA-induced IL-2 mRNA expression in heparinized whole blood ex vivo
Type: cell-based, human
Details: supplement 30 min, concentrations per footnote
Method: In this embodiment, phytohemagglutinin-induced gene expression of interleukin-2 (IL-2), interleukin-4 (IL-4), and tumor necrosis factor-α (TNF-α) were quantitated in the following manner. Fifty μL of heparinized whole blood was incubated with various dietary supplements for a period of 30 minutes. The following supplements were employed: vitamins A, C, and D, epigallocatechin gallate (from green tea), genistein (from soy), and curcumin (from the spice turmeric). Vitamin A is known to stimulate the immune system. […] Vitamin D appears to have protective effects against certain cancers. Epigallocatechin gallate is a powerful antioxidant, appears to reduce the multidrug resistance found in cancer cells, and preferentially induces apoptosis in neoplastic cells. Genistein has been found in some studies to have anticarcinogenic activity; possible mechanisms of action include upregulation of apoptosis, inhibition of angiogenesis, inhibition of DNA topoisomerase II and inhibition of protein tyrosine kinases. Curcumin has proapoptotic effects in neoplastic cells and interferes with the activity of the transcription factor NF-κB, which is often highly overexpressed in such cells.
After incubation with the dietary supplement, 100 μg/mL phytohemagglutinin (PHA) was added and incubation was continued for an additional 2 hours at 37° C. The concentration of each dietary supplement (see Table I, note) was slightly higher than reported blood levels. Then mRNA was purified, cDNA was synthesized, and the levels of IL-2, IL-4, and TNF-α were quantitated by TaqMan real time polymerase chain reaction (PCR) (see Holland, et al., “Detection of specific polymerase chain reaction product by utilizing the 5′ to 3′ exonuclease activity of Thermus aquaticus DNA polymerase,” Proc Natl Acad Sci USA 1991; 88: 7276-80), as described below.
The mRNA and cDNA were prepared from the whole blood that was exposed to the dietary components, as well as the whole blood which remained unexposed. In brief, home-made 96-well filterplates were placed over collection plates, and 150 μl 5 mM Tris, pH 7.4, was applied. Following centrifugation at 120×g for 1 min at 4° C., 50 μl of blood samples were applied to each well and immediately centrifuged at 120×g for 2 min at 4° C., followed by washing of each well with 300 μl PBS once with centrifugation at 2000×g for 5 min at 4° C. Then, 60 μl stock lysis buffer, containing for example 0.5% N-Lauroylsarcosine, 4×SSC, 10 mM Tris HCl, pH 7.4, 1 mM EDTA, 0.1% IGEPAL CA-630, and 1.791 M guanidine thiocyanate, supplemented with 1% 2-mercaptoethanol (Bio Rad, Hercules, Calif., USA), 0.5 mg/ml proteinase K (Pierce, Rockford, Ill., USA), 0.1 mg/ml salmon sperm DNA (5 Prime Eppendorf/Brinkmann, Westbury, N.Y., USA), 0.1 mg/ml E. coli tRNA (Sigma), a cocktail of 10 mM each of the specific reverse primers shown in Table 2, and standard RNA34 oligonucleotides, were applied to the filterplates, followed by incubation at 37° C. for 10 min. The filterplates were then placed over oligo(dT)-immobilized microplates (GenePlate, RNAture), and centrifuged at 2000×g for 5 min at 4° C. Following overnight storage at 4° C., the microplates were washed with 100 μl plain lysis buffer 3 times, followed by 150 μl of wash buffer (0.5 M NaCl, 10 mM Tris, pH 7.4, 1 mM EDTA) 3 times at 4° C. The cDNA was directly synthesized in each well by adding 30 μl of buffer containing 1×RT-buffer, 1.25 mM each of dNTP, 4 units rRNasin, and 80 units of MMLV reverse transcriptase (Promega) (without primers), and incubation at 37° C. for 2 hours. The specific primer-primed cDNA existed in solution, and oligo(dT)-primed cDNA stayed immobilized in the microplate. […]

CC1=C(/C=C/C(C)=C/C=C/C(C)=C/CO)C(C)(C)CCC1 [VA, vitamin A]
ΔΔCt (mean ± standard deviation, n = 3), IL-2 mRNA (Subject 1, then 100 μg/mL PHA 2 h 37° C., negative = increased expression): −0.98 ± 0.04 | ΔΔCt (mean ± standard deviation, n = 3), IL-2 mRNA (Subject 2, then 100 μg/mL PHA 2 h): −1.61 ± 0.32 | ΔΔCt (mean ± standard deviation, n = 3), IL-2 mRNA (Subject 3, then 100 μg/mL PHA 2 h): 0.49 ± 0.33 | ΔΔCt (mean ± standard deviation, n = 3), IL-2 mRNA (Subject 4, then 100 μg/mL PHA 2 h): −0.29 ± 0.21 | ΔΔCt (mean ± standard deviation, n = 3), IL-2 mRNA (Subject 5, then 100 μg/mL PHA 2 h): −1.16 ± 0.02 | ΔΔCt (mean ± standard deviation, n = 3), IL-2 mRNA (Subject 6, then 100 μg/mL PHA 2 h): −0.26 ± 0.20 | ΔΔCt (mean ± standard deviation, n = 3), IL-2 mRNA (Subject 7, then 100 μg/mL PHA 2 h): −0.66 ± 0.35
